Assay results: article PMC10451377, “Rationally Designed Pyrimidine Compounds: Promising Novel Antibiotics for the Treatment of Staphylococcus aureus-Associated Bovine Mastitis” (Antibiotics, 2023)
Values after ≈ are worked out from the molar mass of the structure shown. Like-named read-outs stand apart in the source and are kept apart here. Values belong to the compound of their own block, whether it stands above or below them.

How the values were obtained:
Bovine S. aureus = assay: Susceptibility of isolate panel (MIC50, MIC90, range); format: cell-based, Staphylococcus aureus
From the text: (§1) Reference strains for this study (S. aureus ATCC 29213, ATCC 29740 [bovine mastitis strain Newbould], S. epidermidis ATCC 12228, E. coli ATCC 35695, E. faecalis ATCC 29212) were obtained from the American Type Culture Collection (ATCC, Rockville, MD). S. aureus strains CMRSA-10 and CMRSA-2 were obtained from the Laboratoire de santé publique du Québec (LSPQ, Sainte-Anne-de-Bellevue, QC, Canada) and are Canadian CA-MRSA USA-300 and HA-MRSA USA-100 clones, respectively. The strain E. coli imp4213 (lptD), used as a control in MIC assays, is a derivative of E. coli ATCC 35695 (E. coli MC4100) with an increased membrane permeability. […] Other MRSA strains used in this study are clinical isolates of human origin obtained from the microbiology laboratory of the Centre Hospitalier Universitaire de Sherbrooke (CHUS, Sherbrooke, QC, Canada). Bovine mastitis strains (S. aureus, S. chromogenes, S. haemolyticus, S. hominis, S. simulans) were obtained from the Canadian Bovine Mastitis and Milk Quality Research Network (CBRQMN, St-Hyacinthe, QC, Canada). Among these strains, S. aureus 2117 is a high producer of biofilm and was used in the biofilm-eradication assay. S. epidermidis isolates were provided by Centre de Recherche en Infectiologie (CRI) de Québec (Québec, QC, Canada).
(§2) The antibacterial activity of the most promising compound, PC206, was also evaluated against larger groups of clinical isolates of human and animal origin. The MIC50 and MIC90 values represented the concentrations of drug required to inhibit the growth of 50% and 90% of the bacterial strains tested, respectively.

MRSA = assay: as above; format: cell-based, Staphylococcus aureus
From the text: as §1, §2

S. haemolitycus = assay: as above; format: cell-based, S. haemolyticus
From the text: as §1, §2

S. chromogenes = assay: as above; format: cell-based
From the text: as §1, §2

S. epidermidis = assay: as above; format: cell-based
From the text: as §1, §2

S. hominis = assay: as above; format: cell-based
From the text: as §1, §2

S. simulans = assay: as above; format: cell-based
From the text: as §1, §2

[1] = system: Staphylococcus aureus CMRSA-10; assay: Broth microdilution MIC; format: cell-based; conditions: CMRSA10, read-out: Broth Microdilution MIC
From the text: as §1

[2] = system: Staphylococcus aureus CMRSA-2; assay: Broth microdilution MIC; format: cell-based; conditions: CMRSA2, read-out: Broth Microdilution MIC
From the text: as §1

[3] = system: Escherichia coli ΔlptD4213; assay: microbe, parasite or virus in culture; format: cell-based; conditions: read-out: Broth Microdilution MIC
From the text: as §1

[4] = system: Bacillus subtilis xpt-lacZ; assay: Broth microdilution MIC; format: cell-based; conditions: read-out: Broth Microdilution MIC
[5] = system: S. aureus bovine strain 2117 embedded in preformed biofilm; assay: Biofilm-eradication test (MBEC assay); format: cell-based, Staphylococcus aureus; conditions: concentrations up to 512 µg/mL
Description: The viability of bacteria in preformed biofilms treated with PC206 was evaluated using the MBEC assay™ system (formerly the Calgary Biofilm Device). The device consists of a plastic lid with 96 pegs and a 96-well plate. […] Plates were incubated at 35 °C for 24 h with agitation (120 rpm). […] The pegs were washed three times with PBS and the biofilm was sonicated for 10 min, and then transferred into a new 96-well base plate. The 96-well plate was centrifuged for 5 min at 180 g to recover the detached bacteria.

[6] = system: Staphylococcus aureus ATCC 29213; assay: Broth microdilution MIC; conditions: ATCC29213, read-out: Broth Microdilution MIC
[7] = system: Staphylococcus epidermidis ATCC 12228; assay: Broth microdilution MIC; conditions: ATCC12228, read-out: Broth Microdilution MIC
[8] = system: Enterococcus faecalis ATCC 29212; assay: Broth microdilution MIC; conditions: ATCC29212, read-out: Broth Microdilution MIC
[9] = system: Escherichia coli ATCC 35695; assay: Broth microdilution MIC; conditions: ATCC35695, read-out: Broth Microdilution MIC

MIC50 (Bovine S. aureus; Bovine S. aureus, 48 isolates): 0.25 µg/mL (≈ 0.608 µM) | MIC90 (Bovine S. aureus; Bovine S. aureus, 48 isolates): 0.5 µg/mL (≈ 1.22 µM) | MIC Range (Bovine S. aureus; Bovine S. aureus, 48 isolates): 0.12 to 1 µg/mL | MIC50 (MRSA; 42 isolates): >64 µg/mL | MIC90 (MRSA; 42 isolates): >64 µg/mL | MIC50 (S. chromogenes; S. chromogenes, 5 isolates): 0.06 µg/mL (≈ 0.146 µM) | MIC90 (S. chromogenes; S. chromogenes, 5 isolates): 1 µg/mL (≈ 2.43 µM) | MIC Range (S. chromogenes; S. chromogenes, 5 isolates): 0.06 to 2 µg/mL | MIC50 (S. epidermidis; S. epidermidis, 10 isolates): 0.12 µg/mL (≈ 0.292 µM) | MIC90 (S. epidermidis; S. epidermidis, 10 isolates): >16 µg/mL | MIC50 (S. hominis; S. hominis, 10 isolates): 1 µg/mL (≈ 2.43 µM) | MIC90 (S. hominis; S. hominis, 10 isolates): >16 µg/mL | MIC50 (S. simulans; S. simulans, 5 isolates): 0.12 µg/mL (≈ 0.292 µM) | MIC90 (S. simulans; S. simulans, 5 isolates): 0.25 µg/mL (≈ 0.608 µM) | MIC Range (S. simulans; S. simulans, 5 isolates): 0.12 to 0.25 µg/mL
SMILES: CC[C@@H]1CCN[C@H](C(=O)N[C@@H]([C@H]2O[C@H](SC)[C@H](O)[C@@H](O)[C@H]2O)[C@H](C)Cl)C1 [PIR, pirlimycin]
MIC50 (S. haemolitycus; S. haemolitycus, 10 isolates): 0.25 µg/mL (≈ 0.608 µM) | MIC90 (S. haemolitycus; S. haemolitycus, 10 isolates): >16 µg/mL

SMILES: CN[C@H](CC(C)C)C(=O)N[C@H]1C(=O)N[C@@H](CC(N)=O)C(=O)N[C@H]2C(=O)N[C@H]3C(=O)N[C@H](C(=O)N[C@H](C(=O)O)c4cc(O)cc(O)c4-c4cc3ccc4O)[C@H](O)c3ccc(c(Cl)c3)Oc3cc2cc(c3O[C@@H]2O[C@H](CO)[C@@H](O)[C@H](O)[C@H]2O[C@H]2C[C@](C)(N)[C@H](O)[C@H](C)O2)Oc2ccc(cc2Cl)[C@H]1O [VAN, vancomycin]
MIC [1]: 1 µg/mL (≈ 0.69 µM) | MIC [2]: 1 µg/mL (≈ 0.69 µM) | MIC [3]: 1 µg/mL (≈ 0.69 µM) | MIC [4]: 0.25 µg/mL (≈ 0.173 µM) | MIC Range (Bovine S. aureus; Bovine S. aureus, 48 isolates): 0.25 to 1 µg/mL | MIC50 (Bovine S. aureus; Staphylococcus aureus): 0.5 µg/mL (≈ 0.345 µM) | MIC90 (Bovine S. aureus; Staphylococcus aureus): 0.5 µg/mL (≈ 0.345 µM) | MIC Range (MRSA; 42 isolates): 0.5 to 4 µg/mL | MIC50 (MRSA; Staphylococcus aureus): 1 µg/mL (≈ 0.69 µM) | MIC90 (MRSA; Staphylococcus aureus): 4 µg/mL (≈ 2.76 µM) | MIC Range (S. haemolitycus; S. haemolitycus, 10 isolates): 0.25 to 4 µg/mL | MIC50 (S. haemolitycus; Staphylococcus haemolyticus): 2 µg/mL (≈ 1.38 µM) | MIC90 (S. haemolitycus; Staphylococcus haemolyticus): 4 µg/mL (≈ 2.76 µM) | MIC50 (S. chromogenes): 0.5 µg/mL (≈ 0.345 µM) | MIC90 (S. chromogenes): 0.5 µg/mL (≈ 0.345 µM) | MIC Range (S. chromogenes; S. chromogenes, 5 isolates): 0.5 µg/mL (≈ 0.345 µM) | MIC Range (S. epidermidis; S. epidermidis, 10 isolates): 0.5 to 1 µg/mL | MIC50 (S. epidermidis; Staphylococcus epidermidis): 1 µg/mL (≈ 0.69 µM) | MIC90 (S. epidermidis; Staphylococcus epidermidis): 1 µg/mL (≈ 0.69 µM) | MIC Range (S. hominis; S. hominis, 10 isolates): 0.25 to 1 µg/mL | MIC50 (S. hominis; Staphylococcus hominis): 0.5 µg/mL (≈ 0.345 µM) | MIC90 (S. hominis; Staphylococcus hominis): 0.5 µg/mL (≈ 0.345 µM) | MIC Range (S. simulans; S. simulans, 5 isolates): 0.5 µg/mL (≈ 0.345 µM) | MIC50 (S. simulans; Staphylococcus simulans): 0.5 µg/mL (≈ 0.345 µM) | MIC90 (S. simulans; Staphylococcus simulans): 0.5 µg/mL (≈ 0.345 µM) | Effect on viable counts in preformed biofilm [5]: did not impact viable counts | MIC [6]: 0.5 µg/mL (≈ 0.345 µM) | MIC [7]: 1 µg/mL (≈ 0.69 µM) | MIC [8]: 4 µg/mL (≈ 2.76 µM) | MIC [9]: > 128 µg/mL
